Entries after “also recorded” stand apart in the source; their conditions may differ.

One assay relates to Jurkat cells. Put plainly: Annexin V-FITC binding (early apoptosis) by FACS, Jurkat cells. In kind it is cell-based. The following applies: sirtinol 200 μM, 24 h. The procedure: (§1) PBMCs and Jurkat cells were plated in RPMI-10% FBS in 12-well plates 24 h prior to Annexin V FITC FACS analysis. Some of the cells were treated with sirtinol (200 μM) and the binding of Annexin V-FITC to cells was compared with that of cells exposed to vehicle (DMSO) only. Annexin V assay was performed according to manufacturer instructions (BD Biosciences) and only Annexin V FITC positive, propidium iodide negative cells were used in the evaluations since they are reflecting early apoptosis.
(In flow cytometry, cells or beads pass a laser one at a time.)

Assay [1] relates to CD8+ T cells from an MS patient. In words: Annexin V-FITC binding (early apoptosis) by FACS, CD8+ T cells from an MS patient. In kind it is cell-based, human. The following applies: sirtinol 200 μM, 24 h. Here is the method: as §1
For a further assay, the system named is FasL. In words: FasL expression by FACS analysis in PBMCs from a stable MS patient after sirtinol. In kind it is cell-based, human. The settings on record: sirtinol 200 μM. Here is the method:
FIGS. 8A-8D. Effect of SIRT 1 inhibition on FasL expression. PBMCs from a stable MS patient (FIG. 8A, FIG. 8C) were pretreated with the SIRT1 inhibitor sirtinol (200 μM) for 24 h (FIG. 8B, FIG. 8D), cultured with CD4^+ (FIG. 8B) or CD8^+ (FIG. 8D) T cells, and expression of FasL was then determined by FACS analysis.

For another assay, the system named is SIRT1 mRNA. In words: SIRT1 mRNA expression in PBMCs from stable MS patients after sirtinol. It is filed as cell-based, human. The settings on record: sirtinol 200 μM, data not shown.
Assay [2] deals with CD4+ T cells from an MS patient. Put plainly: Annexin V-FITC binding (early apoptosis) by FACS, CD4+ T cells from an MS patient. It is filed as cell-based, human. The following applies: sirtinol 200 μM, 24 h. Here is the method: as §1
Another assay concerns RRMS. In words: Clinical response to glatiramer acetate in RRMS patients over 2 years. The settings on record: 15 RRMS patients, 20 mg subcutaneously every day for 2 years. In kind it is in vivo, human. An excerpt:
A total of 15 patients with RRMS were enrolled in the study. The patients were recruited from the University of Maryland Multiple Sclerosis Center. The mean age was 40 (range, 22-60), and consisted of 60% females (n=9) and 40% males (n=6). The criteria for inclusion of MS patients in the study were: (i) age 18 to 65 years; (ii) fulfillment of the McDonald criteria for definite MS (McDonald et al., 2001; Polman et al., 2005); (iii) relapsing-remitting course; (iv) having newly diagnosed MS, or MS not treated with currently used immunomodulatory drugs (interferon-β or glatiramer acetate) for 3 months prior to study entry; (v) no exacerbations in the 4 weeks before the study; (vi) no i.v. or p.o. steroids for 4 weeks prior to study enrollment; (vii) no treatment with Tysabri, Gilenya, mitoxantrone, cyclophosphamide, or any investigational drug during the past year; and (viii) a disability score of 0-5.5, as defined by the expanded disability status scale (EDSS) (Kurtzke, 1983). […]
All MS patients received 20 mg of glatiramer acetate (GA) injected subcutaneously every day for 2 years. During this period of 2 years, patients were clinically evaluated and peripheral blood samples were collected at 0, 3, 6, and 12 months at the time of their outpatient visits. […]

The test system of another assay is EAE. The following applies: cited from earlier work.
The next assay concerns activated T cells. The settings on record: Singh et al., 2007; cited from earlier work.

Experimental for SIRT1 mRNA: PBMCs were collected using BD Vacutainer CPT tubes (Becton Dickinson, Franklin Lakes, N.J.). […] Total RNA was purified using the RNeasy Mini Kit (Qiagen, Santa Clarita, Calif.) according to the manufacturer's instructions. RNA (0.5 μg per sample) was mixed with RT buffer, dNTP, and oligo-dT primer (Invitrogen). RNA was denatured by incubation at 65° C. for 5 min. The reverse transcriptase (Promega) and RNase inhibitor (Invitrogen) were then added, and the reaction mixture was incubated at 37° C. for 1 h. The reaction was terminated by incubating the mixture at 95° C. for 5 min (Tegla et al., 2013). […]
As a negative control for each real-time PCR assay, the same reaction was performed in the absence of cDNA or reverse transcriptase. For each gene, the cycle threshold (CT) values were determined in the exponential phase of the amplification plot and normalized by subtraction of the CT value for 18S (generating a ΔCT value). […] A standard curve was generated using serial dilutions of qPCR Reference Total cDNA (Clontech, Mountain View, Calif.), and the normalized mRNA value (NRV) was calculated according to the following formula for relative expression of target mRNA: NRV (TarS/L13), where TarS represents the level of mRNA expression of the target gene, and L13 corresponds to that of the amplified L13 mRNA. […]

Consider `CC(NC(=O)c1ccccc1/N=C/c1c(O)ccc2ccccc12)c1ccccc1` (stereo not drawn) [sirtinol], for which the “Annexin V binding / apoptosis, in words” value (in the assay with Jurkat cells; in assay [1] (CD8+ T cells from an MS patient); in assay [2] (CD4+ T cells from an MS patient)) was “significant apoptosis; also recorded: significant increase in Annexin V binding” each time. In addition, in the assay on Jurkat cells (vehicle DMSO control 6%), the “cells binding Annexin V” value is reported as 65%. Besides, the “apoptosis (Annexin V binding)” value in assay [1] (CD8 cells, control cells 22%) came to 81%; in assay [2] (CD4 cells, control cells 6%) it was 55%. Further, the FasL expression result with FasL (CD4+ T cells, 24 h) is recorded as “significant increase”; in the assay with FasL (CD8+ T cells, 24 h), “significant increase”; in the assay on FasL (PBMCs from stable MS patients), “significantly increased”. Besides, the “inhibition of the expression of SIRT1 mRNA” value in the assay with SIRT1 mRNA came to 50%.
Regarding glatiramer acetate [GA], in the assay with RRMS, the “non-responders (2 or more relapse events during the 2 year span)” value is 4 and the “responders (0 or no more than 1 relapse event during the 2 year span)” value is reported as 11.
As to `Oc1ccc(C=Cc2cc(O)cc(O)c2)cc1` [resveratrol], the “disease course in EAE” value in the assay on EAE (Nimmagadda et al., 2013) is recorded as “ameliorates the disease course”. In the assay with EAE (Singh et al., 2007), the “spinal cord inflammation during EAE” value was “decrease in spinal cord inflammation”. Further, the “apoptosis in activated T cells” value in the assay with activated T cells is “trigger apoptosis”.

Source of the values: patent US10280465B2, “Biomarkers for predicting relapse in multiple sclerosis” (The United States of America as represented by the …, priority 2014, dated 2019).
